# From US20260042762A1 (Kymera Therapeutics, Inc., priority 2018, published 2026)
# Counter-ions that a name gives are not always drawn.
# Key:
# MerTK [1] = molecular target: T1, MerTK (Mus musculus, UniProt Q60805); test: MerTK degradation in RAW264 cells (Western blot); format: cell-based; settings: RAW264.7, 0.001-1 μM, 4 hour-incubation at 37° C., read-out: RAW264 Max % MerTK Degradation
# T1 construct: endogenous in cells; host or cells: RAW264 cells
# T1 sequence (Q60805 19-994): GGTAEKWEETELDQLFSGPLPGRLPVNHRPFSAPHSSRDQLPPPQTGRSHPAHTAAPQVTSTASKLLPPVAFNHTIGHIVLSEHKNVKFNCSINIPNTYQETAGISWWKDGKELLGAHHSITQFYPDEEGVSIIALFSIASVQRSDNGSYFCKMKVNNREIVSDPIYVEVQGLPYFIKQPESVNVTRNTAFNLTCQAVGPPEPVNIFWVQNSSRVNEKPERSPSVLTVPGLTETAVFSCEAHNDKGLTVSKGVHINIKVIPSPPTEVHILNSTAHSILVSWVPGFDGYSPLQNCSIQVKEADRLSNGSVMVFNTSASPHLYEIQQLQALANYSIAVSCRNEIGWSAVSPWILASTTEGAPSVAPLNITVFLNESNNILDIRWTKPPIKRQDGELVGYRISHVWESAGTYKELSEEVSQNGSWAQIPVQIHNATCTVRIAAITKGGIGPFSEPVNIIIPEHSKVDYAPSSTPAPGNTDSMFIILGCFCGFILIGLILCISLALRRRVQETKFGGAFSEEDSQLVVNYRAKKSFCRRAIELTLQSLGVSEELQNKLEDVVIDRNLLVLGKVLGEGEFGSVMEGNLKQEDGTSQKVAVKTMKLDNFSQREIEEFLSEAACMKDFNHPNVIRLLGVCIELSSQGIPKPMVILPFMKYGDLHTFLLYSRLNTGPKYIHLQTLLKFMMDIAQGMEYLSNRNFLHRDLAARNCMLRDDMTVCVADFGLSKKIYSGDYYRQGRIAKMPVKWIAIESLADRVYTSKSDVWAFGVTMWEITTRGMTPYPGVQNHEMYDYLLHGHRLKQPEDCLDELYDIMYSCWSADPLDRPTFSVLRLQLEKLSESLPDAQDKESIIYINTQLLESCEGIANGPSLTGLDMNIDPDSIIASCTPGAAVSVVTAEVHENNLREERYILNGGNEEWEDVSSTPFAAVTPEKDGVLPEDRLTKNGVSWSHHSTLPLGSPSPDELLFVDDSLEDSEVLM
# Description: Compounds were reconstituted in DMSO to make 10 mM stock solutions. RAW264 cells were maintained in DMEM medium containing 10% FBS. Cells were seeded into 6-well plates with 2×10^6 cells per well. 2 μL of diluted compounds were added to cells to the final concentration of 0.001-1 μM. After a 4 hour-incubation at 37° C., cells were washed with DPBS (1×) once. Then RIPA lysis buffer with Halt Protease and Phosphatase Inhibitor Cocktail was added directly to the cells and cells were then incubated on ice for 10 min, then lysate was harvested into 1.5 mL Eppendorf tubes and centrifuged at 14,000 rpm for 10 min at 4° C. and the supernatants were collected for Western blots.
# The protein concentration of cell lysates was quantified with Pierce™ BCA Protein Assay Kit. […] BCA working reagents were prepared by mixing BCA reagent A with reagent B in 50: 1 ratio. 200 μL of the BCA working reagents were added to 25 μL of BCA standard or cell lysates in microplate, and mixed thoroughly on a plate shaker for 30 seconds. After incubation at 37° C. for 30 min, the absorbance of samples at 562 nm were measured with EnVision Plate Reader.
# Protein lysates were prepared in NuPAGE™ LDS sample buffer and NuPAGE™ sample reducing agent, and incubated at 95° C. for 5 min. […] The proteins were transferred to low fluorescence PVDF membranes using the Trans-Blot Turbo Transfer System. Membranes were then blocked in Odyssey blocking buffer at RT for 1 h followed by primary incubation at 4° C. overnight. The primary antibodies were MerTK goat polyclonal antibody and actin mouse monoclonal antibody. Membranes were washed three times with TBST (1×), and then incubated with IR Dye 800 CW Donkey anti-goat and IR Dye 700 CW Goat anti-mouse secondary antibodies in 1:10,000 dilution at RT for 1 h. The Western blot images were obtained using Odyssey Imaging System.
# MerTK [2] = molecular target: T2, MerTK (Homo sapiens, UniProt Q12866); test: MerTk degradation in Jurkat cells (Western blot); format: cell-based; settings: Jurkat, 4 h, 0.001-1 μM, 4 hour-incubation at 37° C., read-out: Jurkat Max % MerTK Degradation
# T2 construct: endogenous in cells; host or cells: Jurkat cells
# T2 sequence (Q12866 21-999): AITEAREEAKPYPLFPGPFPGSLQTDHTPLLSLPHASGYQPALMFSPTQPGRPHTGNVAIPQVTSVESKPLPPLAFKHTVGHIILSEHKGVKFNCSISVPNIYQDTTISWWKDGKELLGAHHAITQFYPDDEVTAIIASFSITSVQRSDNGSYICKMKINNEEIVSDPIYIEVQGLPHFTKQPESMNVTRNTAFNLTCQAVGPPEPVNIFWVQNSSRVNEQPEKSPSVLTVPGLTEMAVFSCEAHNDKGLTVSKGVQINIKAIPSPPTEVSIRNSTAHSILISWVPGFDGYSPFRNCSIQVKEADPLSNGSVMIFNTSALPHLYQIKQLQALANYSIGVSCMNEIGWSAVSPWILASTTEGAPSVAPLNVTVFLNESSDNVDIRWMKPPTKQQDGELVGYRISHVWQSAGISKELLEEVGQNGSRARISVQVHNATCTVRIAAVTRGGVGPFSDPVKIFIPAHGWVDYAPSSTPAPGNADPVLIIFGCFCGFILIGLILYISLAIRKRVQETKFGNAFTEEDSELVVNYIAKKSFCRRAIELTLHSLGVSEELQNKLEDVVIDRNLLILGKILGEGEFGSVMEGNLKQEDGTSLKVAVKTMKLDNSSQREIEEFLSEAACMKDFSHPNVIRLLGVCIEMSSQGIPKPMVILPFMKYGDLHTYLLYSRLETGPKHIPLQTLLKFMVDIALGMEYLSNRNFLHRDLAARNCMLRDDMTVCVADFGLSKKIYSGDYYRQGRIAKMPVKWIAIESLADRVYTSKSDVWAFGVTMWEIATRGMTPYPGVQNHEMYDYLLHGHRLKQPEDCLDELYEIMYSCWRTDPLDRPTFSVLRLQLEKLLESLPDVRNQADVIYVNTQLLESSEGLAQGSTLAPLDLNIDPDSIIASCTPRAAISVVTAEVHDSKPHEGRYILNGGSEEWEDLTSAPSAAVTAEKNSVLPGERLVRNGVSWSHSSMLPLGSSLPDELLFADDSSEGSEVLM
# How it was run: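 MerTK degradation was read by near-infrared Western blot, normalized to actin, in BCA-quantified lysates of Jurkat cells exposed to 0.001-1 μM compound for 4 h at 37 °C.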
SMILES,Dmax (MerTK [1]) [%],Dmax (MerTK [2]) [%]
"CCCCNc1ncc2c(-c3ccc(S(=O)(=O)N4CCN(CCOCCOCCOCCOCCCc5cccc6c5n(C)c(=O)n6C5CCC(=O)NC5=O)CC4)cc3)cn([C@H]3CC[C@H](O)CC3)c2n1 (stereo partly drawn) [I-13, 3-[4-[1-(4-[4-[2-(Butylamino)-7-[trans-4-hydroxycyclohexyl]-7H-pyrrolo [2,3-d]pyrimidin-5-yl]benzenesulfonyl]piperazin-1-yl)-3,6,9,12-tetraoxapentadecan-15-yl]-3-methyl-2-oxo-2,3-dihydro-1H-1,3-benzodiazol-1-yl]piperidine-2,6-dione formate]",> 50,> 50
"CCCCNc1ncc2c(-c3ccc(S(=O)(=O)N4CCN(C(=O)NCCCOCCCNc5cccc6c5C(=O)N(C5CCC(=O)NC5=O)C6=O)CC4)cc3)nn([C@H]3CC[C@H](O)CC3)c2n1 (stereo partly drawn) [I-20, 4-((4-(6-(Butylamino)-1-(trans-4-hydroxycyclohexyl)-1H-pyrazolo[3,4-d]pyrimidin-3-yl)phenyl)sulfonyl)-N-(3-(3-((2-(2,6-dioxopiperidin-3-yl)-1,3-dioxoisoindolin-4-yl)amino)propoxy)propyl)piperazine-1-carboxamide]",> 50,> 50
"CCCCNc1ncc2c(-c3ccc(CN4CCN(CCOCCOCCOCCCc5ccc6c(c5)n(C)c(=O)n6C5CCC(=O)NC5=O)CC4)cc3)cn([C@H]3CC[C@H](O)CC3)c2n1 (stereo partly drawn) [I-40, 3-(5-[3-[2-(2-[2-[4-([4-[2-(Butylamino)-7-[trans-4-hydroxycyclohexyl]-7H-pyrrolo[2,3-d]pyrimidin-5-yl]phenyl]methyl)piperazin-1-yl]ethoxy]ethoxy)ethoxy]propyl]-3-methyl-2-oxo-2,3-dihydro-1H-1,3-benzodiazol-1-yl)piperidine-2,6-dione formic acid]",> 50,> 50
"O=C1CCC(N2C(=O)c3cccc(NCCOCCOCCOCCOCCN4CCN(Cc5ccc(-c6cn([C@H]7CC[C@H](O)CC7)c7nc(NCCC8CC8)ncc67)cc5)CC4)c3C2=O)C(=O)N1 (stereo partly drawn) [I-14, 4-(15-[4-[(4-[2-[(2-Cyclopropylethyl)amino]-7-[trans-4-hydroxycyclohexyl]-7H-pyrrolo[2,3-d]pyrimidin-5-yl]phenyl)methyl]piperazin-1-yl]-4,7,10,13-tetraoxa-1-azapentadecan-1-yl)-2-(2,6-dioxopiperidin-3-yl)-2,3-dihydro-1H-isoindole-1,3-dione formate]",> 50,> 50
"CCCCNc1ncc2c(-c3ccc(CN4CCN(CCOCCOCCOCCOCCNc5cccc6c5n(C)c(=O)n6C5CCC(=O)NC5=O)CC4)cc3)nn([C@H]3CC[C@H](O)CC3)c2n1 (stereo partly drawn) [I-37, trans-3-(4-[15-[4-([4-[6-(butylamino)-1-[4-hydroxycyclohexyl]-1H-pyrazolo[3,4-d]pyrimidin-3-yl]phenyl]methyl)piperazin-1-yl]-4,7,10,13-tetraoxa-1-azapentadecan-1-yl]-3-methyl-2-oxo-2,3-dihydro-1H-1,3-benzodiazol-1-yl)piperidine-2,6-dione]",> 50,> 50
"CCCCNc1ncc2c(-c3ccc(S(=O)(=O)N4CCN(C(=O)NCCCOCCCOCCCNc5cccc6c5C(=O)N(C5CCC(=O)NC5=O)C6=O)CC4)cc3)nn([C@H]3CC[C@H](O)CC3)c2n1 (stereo partly drawn) [I-19, 4-((4-(6-(Butylamino)-1-(trans-4-hydroxycyclohexyl)-1H-pyrazolo[3,4-d]pyrimidin-3-yl)phenyl)sulfonyl)-N-(3-(3-(3-((2-(2,6-dioxopiperidin-3-yl)-1,3-dioxoisoindolin-4-yl)amino)propoxy)propoxy)propyl)piperazine-1-carboxamide]",> 50,> 50
"CCCCNc1ncc2c(-c3ccc(S(=O)(=O)N4CCN(CCOCCOCCOCCOCCCc5ccc6c(c5)n(C)c(=O)n6C5CCC(=O)NC5=O)CC4)cc3)cn([C@H]3CC[C@H](O)CC3)c2n1 (stereo partly drawn) [I-12, 3-(5-(1-(4-(4-(2-(Butylamino)-7-(trans-4-hydroxycyclohexyl)-7H-pyrrolo [2,3-d]pyrimidin-5-yl)phenylsulfonyl)piperazin-1-yl)-3,6,9,12-tetraoxapentadecan-15-yl)-3-methyl-2-oxo-2,3-dihydrobenzo[d]imidazol-1-yl)piperidine-2,6-dione]",> 50,> 50
"CCCCNc1ncc2c(-c3ccc(S(=O)(=O)N4CCN(C(=O)CCCCCCCCCCC(=O)N[C@H](C(=O)N5C[C@H](O)C[C@H]5C(=O)NCc5ccc(-c6scnc6C)cc5)C(C)(C)C)CC4)cc3)nn([C@H]3CC[C@H](O)CC3)c2n1 [I-27, (2S,4R)-1-((S)-2-(12-(4-((4-(6-(Butylamino)-1-(trans-4-hydroxycyclohexyl)-1H-pyrazolo[3,4-d]pyrimidin-3-yl)phenyl)sulfonyl)piperazin-1-yl)-12-oxododecanamido)-3,3-dimethylbutanoyl)-4-hydroxy-N-(4-(4-methylthiazol-5-yl)benzyl)pyrrolidine-2-carboxamide]",> 50,> 50
"CCCCNc1ncc(-c2ccc(CN3CCN(CCOCCOCCOCCOCCNc4cccc5c4C(=O)N(C4CCC(=O)NC4=O)C5=O)CC3)cn2)c(N[C@H]2CC[C@H](O)CC2)n1 (stereo partly drawn) [I-25, 4-[15-[4-([6-[2-(Butylamino)-4-[[trans-4-hydroxycyclohexyl]amino]pyrimidin-5-yl]pyridin-3-yl]methyl)piperazin-1-yl]-4,7,10,13-tetraoxa-1-azapentadecan-1-yl]-2-(2,6-dioxopiperidin-3-yl)-2,3-dihydro-1H-isoindole-1,3-dione]",> 50,> 50
